Reference: patent publication US9844535B2, “SHP2 inhibitors and methods of treating autoimmune and/or glomerulonephritis-associated diseases using SHP2 inhibitors” (Indiana University Research and Technology Corporation, priority 2013, dated 2017)

Assays:
IFNγ, TNFα, IL17, IL6 = test: Cytokine ELISA; type: in vivo, mouse; conditions: SLE-prone mice
Description: ELISA assays were used to detect for the presence of various cytokines in mouse serum isolated from vehicle or drug-treated animals or from medium supernatant isolated from tissue cell cultures as described above. In addition, ELISA was also used to detect total IgG and dsDNA IgG from mouse serum and for the assay to detect urine albumin and creatinine levels. ELISA detection kits for mouse cytokines IL-6 and TNFα were purchased from eBioscience, mouse cytokines IL-17A, IFNγ, and human IFNγ were purchased from Biolegend, kits for the albumin and creatinine were purchased from Exocell, and kits for the serum IgG and anti-dsDNA IgG were purchased from Alpha Diagnostic (San Antonio, Tex.). ELISAs were all performed according to the manufacturer's instructions.
Cytokine analyses: In brief, capture antibodies for each cytokine were precoated on 96-well plates overnight at 4° C., then 100 μl of 5× diluted serum or 300× diluted supernatant medium was loaded on the precoated wells in duplicate and left overnight at 4° C. (with the exception of the human IFNγ assay isolated from supernatant medium, where the dilution used was 1:30). As per the protocol instructions, enzyme-antibody conjugate, TMB substrate and stopping buffer were added sequentially. The colorimetric analysis, as measured by optical density (OD) within each well, was determined using a microplate reader set at a wavelength of 450 nm. The cytokine concentrations were calculated and measured against a standard curve for each cytokine.
An ELISA was conducted to detect concentrations of IFNγ, TNFα, IL17, and IL6 in T cells derived from spleen.

[1] = tested on: human T cells isolated from SLE patients; test: Cultured human SLE T cells: IFNγ secretion, proliferation, viability; type: cell-based
Description: All SLE human cells in the following Examples were isolated from SLE patients diagnosed according to the American College of Rheumatology classification criteria and recruited from the Division of Rheumatology at Beth Israel Deaconess Medical Center, Boston, Mass. under IRB protocol 2006-P-0298. Healthy gender- and age-matched control cells were also used for the Examples herein. Briefly, peripheral venous blood was collected in heparin-lithium tubes and peripheral blood mononuclear cells were prepared with ficoll-Paque centrifugation, as previously described in Grammatikos et al., Clin Immunol. 2014; 150: 192-200.
Human T cells were purified from frozen peripheral blood mononuclear cells (PBMC) isolated from SLE or normal donor patients. Briefly, frozen PBMCs were thawed in a 37° C. water bath for 1 to 2 minutes, and then gently added to pre-warmed RPMI1640 medium with 10% FBS (total 10 ml). The cells were centrifuged at 2000 rpm for 5 minutes at room temperature. The cell pellet was washed with 5 ml of pre-warmed RPMI 1640 medium with 10% FBS three times, followed by a final D-PBS (no calcium, no magnesium buffer) wash. Human T cells were then purified by a Pan T Cell Isolation Kit (human) from Miltenyi Biotec, as described above.
The purity of isolated T cells routinely exceeded 94%. After purification, T cells were resuspended in RPMI1640 medium with 10% FBS and 1×10^5 cells/well in 100 ul total volume was loaded onto a 96-well plate, either left uncoated or precoated with anti-CD3 antibody (1 ug/ml) (OKT3; Biolegend). […]
For cell viability, an MTT (thiazolyl Blue tetrazolium Bromide, M2128, Sigma, St. Louis, Mo.) assay was employed. […] Spectrophotometric absorbance of the samples was assessed using a microplate reader at a wavelength of 595 nm. T cell numbers/proliferation was assessed by cell count using a hemocytometer. […] After mixing, 10 μl of the mixture was loaded onto the hemocytometer and the total average number of cells/well was calculated. […]

In the case of `Cn1c(-c2cccc(NC(=O)C(=O)Nc3ccc(-c4ccsc4)cc3)c2)c(I)c2cc(C(=O)O)c(O)cc21` [11a-1], the IFNγ (IFNγ, TNFα, IL17, IL6) is reported as “significant decreases”, the IL6 (IFNγ, TNFα, IL17, IL6) is reported as “No effects” and the IL17 (IFNγ, TNFα, IL17, IL6) is reported as “No effects”. For the same molecule, the TNFα (IFNγ, TNFα, IL17, IL6) was “No effects”, the T cell viability ([1]; human SLE T cell cultures) was “no differences in viability” and the “T cell proliferation in response to CD3” value ([1]; human SLE T cells, 48 hours, 10 μg/ml) was “reduced T cell proliferation”. For the same molecule, the “secretion of IFNγ in response to T cell activation” value ([1]; human SLE T cells, CD3 antibody, 48 hours, 10 μg/ml) was “significantly decreased the secretion of IFNγ activity”.
